The nature of series [1]: n-octanol/water partition coefficient (logP) by RP-TLC. The format is physicochemical. As to conditions: for logP (Hydrolyzed Prodrug): n-octanol/water partition coefficient of the hydrolyzed boronic acid (_BA) form of the prodrug named; for logP (Prodrug): n-octanol/water partition coefficient of the intact prodrug (or control 2c_c), RP-TLC, MOPS pH 7.4. Here is the method:
Determination of n-octanol/water partition coefficients (LogP) […]
mixture of dichloromethane/CH3OH at proper concentrations. Commercially available […]
7.4) (6/4, v/v) was used. The solvent migration distance was around 4.5 cm. The plates […]
and its distance was manually measured. All measurements were done in at least triplicate and average values were used in further calculations. All experiments were performed at ambient temperature (22 ± 2 °C). […]

A short description of series [2]: Prodrug-induced generation of ROS in cell free settings (DCFH/H2O2). Conditions: for ROS Release Efficacy: relative acceleration of the rate of DCFH fluorescence increase with H2O2, pH 7.4, FeSO4 = 1.0. An excerpt: As previously reported, the NAAF-prodrugs react with ROS like H2O2, first leading to the cleavage of the B-C-bond with the formation of the phenol derivatives (product 2c-1, Figure S49, SI). The latter compounds exist in equilibrium with the corresponding phenolates. The phenolates undergo the spontaneous 1,6-elimination of para-quinone methide (QM) followed by the release of CO2 with the formation of the N-alkylaminoferrocene NAAF drugs (product 2c-2, Figure S46, SI). By using electrospray ionization mass spectrometry (ESI–MS), we confirmed for one representative prodrug 2c that it reacts with H2O2 in cell free settings according to this common mechanism (ESI-MS, Figures S46–S48, SI). The NAAF is further oxidized by H2O2 or molecular oxygen with the generation of drug NAAF^+ and highly toxic HO• or/and O2^•−. Finally, the NAAF^+ is reduced by glutathione (GSH), thereby closing the catalytic cycle, in which the NAAF acts as a catalyst. We evaluated the formation of HO• or/and O2^•− by using 2′,7′-dichlorodihydrofluorescein (DCFH) as a probe (Table 1, Figure S49, SI). This probe is oxidized to the fluorescent product 2′,7′-dichlorofluorescein (DCF) in the presence of HO• or/and O2^•−. […] The lower activity of 2c and 2d correlates with their higher lipophilicity and their correspondingly higher propensity to form aggregates in aqueous solution (Figure S45, SI).
Prodrug-induced generation of ROS in cell free settings
2',7'-Dichlorodihydrofluorescein diacetate (DCFH-DA, 4.9 mg) was dissolved in DMF (100 μL) and mixed with aqueous NaOH (0.1 M, 900 μL). The resulting mixture was incubated for 30 min at 22 °C in the dark to obtain a stock solution of 2',7'-dichlorodihydrofluorescein (DCFH, 10 mM). Next, DCFH (1 µL ) was added to the solution containing MOPS buf fer (100 mM, pH 7.4), N,N,N'N' -e thylenediaminetetraacetic acid (EDTA , 10 mM) and glutathione (GSH , 5 mM) (1 mL, final concentration of DCFH 10 μM). The reaction mixture was heated to 37 °C and H2O2 (1 µL, final concentration 10 mM) was added. The reaction was monitored by fluorescence spectroscopy: λex = 501 nm, λem = 523 nm. After around 5 min, prodrugs (1 mM in DMF, 10 μL) or positive control FeSO4 (1 mM in water, 10 μL) were added, and the fluorescence monitoring was continued until the fluorescence signal growth was stalled after approximately 100 to 300 min. A representative kinetics of ROS […]
The data are presented in Table 1 as relative acceleration of the rate of the fluorescence increase, where the rate of the fluorescence increase obtained in the presence of positive control FeSO4 was set […]
y = a time + b (a = (dF/dt) , min-1)
Figure S49. Increase of the fluorescence intensity (λex = 501 nm, λem = 523 nm) upon oxidation of DCFH by H2O2 in the presence of FeSO4. Experimental details are provided in the description above. The time point of the FeSO4 addition is indicated with a black […]
(also on this page, place not known: ° C µL) buffer N,N,N'N'-ethylenediaminetetraacetic (EDTA, (GSH, ° C FeSO 4 (λ ex λ em Fluorescence (a.u.) (dF/dt)0, min -1 Addition of)
(1 picture or pasted object on this page, not shown here)

Series [3] is described as follows: Solubility in RPMI 1640 medium, precipitation seen by bright field optical microscopy. As to conditions: DMSO 1%; for Solubility: 48 h incubation in RPMI 1640, FBS 5%, first signs of precipitation; for first signs of precipitation: immediately after dilution in RPMI 1640, FBS 5%. The procedure:
The latter medium was selected, since we used it for the cellular assays. […] Then we monitored the formation of (not detectable in the previous experiment) aggregated species in prodrug solutions that appeared transparent (concentrations < 50 µM) by using dynamic light scattering. […]
Solubility of drugs in aqueous buffers
Observing prodrug precipitation by using bright field optical microscopy […]
glutamine (1 %), and penicillin/streptomycin (1 %) was filled into 96-well microtiter plates (100 µL for each well) and compounds in DMSO stock solution (1 µL) were added. Each well was monitored by using bright field optical microscopy both immediately after […]

In series [4] the test system is chronic lymphocytic leukemia (CLL) cells. Briefly: Viability of primary CLL cells (CellTiter Glo). The format is cell-based, human. As to conditions: viability of CLL vs MNC, 48 h; for 2c at 3.3 and 10 µM. The source says:
Determination of viability of primary cancer (CLL) and normal (MNC) cells in the […]
Clinical samples from chronic lymphocytic leukemia (CLL) patients (N=6, CLL cells) and healthy donors (N=6; peripheral blood mononuclear cells, MNCs) were collected at the University Hospital Heidelberg, Germany. Informed consent was obtained in accordance with the Declaration of Helsinki. Sample collection and analysis was approved by the ethics committee of the University of Heidelberg (S-254/2016). Blood was separated by a Ficoll gradient (GE Healthcarey), and cells were cryopreserved. Drug sensitivity screening was performed in 384-well format (Greiner Bio One) with 10 different prodrug […]
4x10^4 cells per well. Cells were cultured in RPMI-1640 (Invitrogen) supplemented with penicillin/streptomycin (Invitrogen), L-glutamine (Invitrogen) and 10% pooled and heat inactivated AB-type human serum (Sigma-Aldrich). Cell viability was assessed by quantification of ATP (CellTiter Glo®, Promega) 48 hours after drug application.
Luminescence was measured on a Tecan Infinite F200 Microplate Reader. Viability was calculated as % of solvent (DMSO) treated control. Representative plots of cell viability

Series [5] concerns A2780 cells. Kind of series: Cell viability, MTT assay, A2780. The format is cell-based, human. The procedure:
Determination of viability of cells in the presence of prodrugs and controls A2780 and BL-2 cells The medium was removed, and the cells were washed two times with DPBS, trypsinated, and resuspended in RPMI 1640 medium (A2780) supplemented with 5% FBS (for 24 h and 48 h assay) or 10% FBS (for 96 h assay) , 1% L-glutamine, and 1% penicillin/streptomycin.
A2780 cells: This suspension was spread in the wells of a 96 -well microtiter plate (25000 cells for A2780 per well per 100 μL) and left standing at 37 °C in the chamber filled with CO2 (5%) for overnight. Stock solutions of prodrugs of different concentra tions (1 μL, solvent dmso, final concentrations in wells were 2, 5, 10, 30, 50 μM) were added to the wells and incubated for specific periods of time. Four experiments were conducted for each concentration of the prodrug. Finally, 3-(4,5-dimethylthiazol-2-yl)-2,5-diphenyltetrazolium bromide (MTT, 20 μL of the solution prepared by dissolving MTT (5 mg) in DPBS buffer (1 mL)) was added to each well, incubated for 3 h, treated with sodium dodecyl sulfate (SDS) solution (90 μL, 10% solution in 0.01 M aqueous HC l), and incubated overnight. Afterward, the intensity of the absorbance at 590 nm was measured.
MTT is converted in live cells to blue dye with the absorbance maximum λ max at 590 nm.
The absorbance at 690 nm was taken as a baseline value. The baseline corrected absorbance at 590 nm (A(590 nm) − A(690 nm)) was applied to calculate the relative number of viable cells. IC50 values were determined by fitting the experimental data expressing the number of viable cells (%, Y-axis) versus drug concentration (μM, X-axis) with a line curve and the X-axis value corresponding to 50% viability was considered as IC50 value according to the line curve (Figure S50, Table S2). […]
On the technique in general: Tetrazolium assays rely on reduction of a dye to a coloured formazan, in cell work by metabolically active cells.

For series [6], the system named is A2780 cells. Briefly: Mitochondrial ROS (MitoSOX, flow cytometry), A2780. Format: cell-based, human. Here is the method: Monitoring mitochondrial ROS (mROS)
A2780 cells were seeded in RPMI 1640 medium containing 5% FBS, 1% L-glutamine and 1% penicillin/streptomycin in a 96-well microtiter plate (total volume 0.1 mL) at a density of 250 cells/µL one day before the experiment. On the day of the experiment, the cells were washed with DPBS buffer and a fresh portion of RPMI 1640 medium containing 5% FBS, 1% L-glutamine and 1% penicillin/streptomycin (100 µL) was added followed by addition of compounds (1 μL of stock solutions in DMSO, final concentration of the prodrugs was 5, 10 μM and 30 μM) or carrier only (DMSO, 1 µL, final concentration 1 %, v/v) and incubation for 1 or 2 h in the dark chamber filled with CO 2 (5%) at 37 °C. After that, the cells were washed twice with DPBS buffer and the medium was replaced with HBSS (Hanks' Balanced Salt solution, 50 μL) containing MitoSOX (Red Mitochondrial Superoxide Indicator, Thermo-Fisher, Catalog number M36008, final concentration 5 µM obtained by adding 0.5 µ L of the 0.5 mM stock solution of MitoSOX in DMSO to the HBSS ) […]
(1 picture or pasted object on this page, not shown here) […]
and the cells were incubated in the dark chamber filled with CO2 (5%) at 37 °C for 20 min.
Next, the cells were detached from the culture dish using trypsin/EDTA (0.025%/0.01%, v/v, 50 µL). The cells were re-suspended in RPMI 1640 medium containing 5% FBS, 1% L-glutamine and 1% penicillin/streptomycin (100 µL). Finally, the fluorescence of live cells (λex = 488 nm, λem = 578 nm) in the suspensions was determined by using flow cytometry
On the technique in general: A flow cytometer gives signals particle by particle.

The record followed here is publication PMC8750417, “Intracellular Amplifiers of Reactive Oxygen Species Affecting Mitochondria as Radiosensitizers” (Cancers, 2021).

By Solubility is commonly meant the concentration that dissolves in the medium under given conditions. For orientation: IC50 means the concentration needed to halve the response being measured. The term cell viability denotes the share of living cells, or the viability signal relative to a control. Lower therefore signals a greater loss of cells.

In the case of `CC1(C)OB(c2ccc(COC(=O)N(Cc3cn(Cc4ccccc4)nn3)[c-]3cccc3)cc2)OC1(C)C.[Fe+2].c1cc[cH-]c1` [2a], in series [1], the “logP (Hydrolyzed Prodrug)” value was 2.92 ± 0.14 and the “logP (Prodrug)” value turned out to be 5.27 ± 0.10. Further, the “ROS Release Efficacy” value in series [2] came to 0.74 ± 0.19. Besides, in series [3], the Solubility was found to be 100 µM and the “first signs of precipitation” value is 50 µM. Moreover, the “cancer cell specificity, primary CLL cells vs MNCs” value in series [4] is “some specificity towards primary CLL cells”. In addition, in the series on A2780 cells [5] (A2780, 24 h incubation), the IC50 stood at 23.7 ± 0.6 µM. The molecule also returned an IC50 in the series on A2780 cells [5] (A2780, 48 h incubation) of 16.2 ± 1.8 µM. Further, the IC50 in the series on A2780 cells [5] (A2780, 96 h incubation) was determined as 10.5 ± 0.7 µM.
As to `CC1(C)OB(c2ccc(COC(=O)N(Cc3cn(Cc4ccc(Cn5cc(CCc6ccccc6)nn5)cc4)nn3)[c-]3cccc3)cc2)OC1(C)C.[Fe+2].c1cc[cH-]c1` [2d], the “logP (Hydrolyzed Prodrug)” value in series [1] is listed as 3.42 ± 0.14. Besides, the “logP (Prodrug)” value in series [1] is 5.56 ± 0.14. Besides, the “ROS-generating activity, fold lower than that of 2a and 2b” value in series [2] (cell free DCFH assay) was ~ 2 fold. For the same molecule, the “ROS Release Efficacy” value in series [2] stood at 0.37 ± 0.13. Besides, in series [3], the Solubility is 30 µM. Moreover, the “first signs of precipitation” value in series [3] is listed as 30 µM. Besides, the “cancer cell specificity, primary CLL cells vs MNCs” value in series [4] is given as “some specificity towards primary CLL cells”. The “cell viability at which the effect is saturated” value in the series with A2780 cells [5] (A2780, 24 h) is recorded as 70%; with A2780 cells [5] (A2780, 48 h), 50%; in the series with A2780 cells [5] (A2780, 96 h), 43%. For the same molecule, the IC50 with A2780 cells [5] (A2780, 24 h incubation) was over 30 µM; in the series on A2780 cells [5] (A2780, 48 h incubation), over 30 µM; in the series on A2780 cells [5] (A2780, 96 h incubation), 8.3 ± 1.5 µM.
As to `CC1(C)OB(c2ccc(COC(=O)N[c-]3cccc3)cc2)OC1(C)C.[Fe+2].c1cc[cH-]c1` [5a], in the series with A2780 cells [6], the “mitochondrial ROS (mROS) vs non-treated cells” value is “substantially weaker”.
